By IC50 is commonly meant the point on the concentration scale where inhibition reaches its midpoint.

Each structure is given as a SMILES string.

The subject of experiment [1] is histamine induced leukocyte rolling in rat mesenteric venules. The experiment can be described thus: Histamine induced leukocyte rolling and adherence in rat mesenteric venules (intravital microscopy). Format: in vivo, rat (male Sprague-Dawley). The following applies: for effect on histamine induced leukocyte rolling: 10^-5 M histamine, FIG. 15; for Erythrocyte velocity / Leukocyte adherence / Leukocyte emigration / Venular diameter / Wall shear rate: with histamine 10^-5 M, Z, SLN 10 mg/Kg i.v., antibodies 2 mg/Kg i.v. As to the method:
Surgical procedure. Sixty-four male Sprague-Dawley rats (200-250 g) were maintained on a purified laboratory diet and fasted for 24 hours prior to the experiment. The animals were initially anesthetized with pentobarbital (65 mg/kg body weight), then a tracheotomy was performed to facilitate breathing during the experiment. The right carotid artery was cannulated and systemic arterial pressure was measured with a Statham (Oxnard, Calif.) P23A pressure transducer connected to the carotid artery cannula. Systemic blood pressure and heart rate were continuously recorded with a Grass physiologic recorder (Grass Instruments, Massachusetts). The left jugular vein was also cannulated for drug administration and blood sample collection. After a midline abdominal incision a segment of the mid-jejunum was exteriorized. All exposed tissue was moistened with saline-soaked gauze to minimize evaporation and dehydration.
Intravital microscopy. Rats were placed in a supine position on an adjustable plexiglass microscope stage and the mesentery was draped over an optically clear coverslip that allowed for observation of a 2 cm^2 segment of tissue. The temperature of the pedestal was maintained at 37° C. with a constant temperature circulator (Fisher Scientific, model 80). A small rubber gasket (area=3.14 cm^2) was placed on the mesentery and the outside area of contact between the gasket and mesentery was sealed (to prevent leakage of superfusate from the ring) with a mixture of high vacuum grease (Dow Corning Corp., Midland, Mich.) and white petrolatum (E. Fougera & Co., Melville, N.Y.). Rectal and mesenteric temperatures were continuously monitored using an electrothermometer. The exposed bowel wall was covered with Saran Wrap (Dow Chemical Co., Indiana), and the mesenteric tissue within the gasket was suffused with warmed bicarbonate-buffered saline (BBS; pH 7.4) that was bubbled with a mixture of 5% O2; 5% CO2; 90% N2.
An inverted microscope (Nikon Optiphoto, Japan) with a ×40 objective lens (Nikon Optiphoto, Japan) and a ×10 eyepiece was used to observe the mesenteric microcirculation. The mesentery was transilluminated with a 12 V-100 W direct current-stabilized light source. A video camera (Hitachi, VK-C150, Japan) mounted on the microscope projected the image onto a color monitor (Sony, PVM-2030, Japan), and the images were recorded using a video cassette recorder (Panasonic, NV8950, Japan). A video time-date generator (Panasonic, WJ810, Japan) projected the time, date, and stopwatch function onto the monitor.
Single unbranched venules with diameters ranging between 25 μm and 35 μm and a length>150 μm were selected for study. Venular diameter (Dv) was measured either on- or off-line using a video image-shearing monitor (IPM, La Mesa, Calif.). The number of adherent leukocytes was determined off-line during playback of videotaped images. A leukocyte was considered to be adherent to venular endothelium if it remained stationary for a period equal to or greater than 30 seconds. Adherent cells were expressed as the number per 100 μm length of venule. The number of emigrated leukocytes was also determined off-line during playback of videotaped images. Ary interstitial leukocytes present in the mesentery at the onset of the experiment were subtracted from the total number of leukocytes that accumulated during the course of the experiment. Leukocyte emigration was expressed as the number per microscopic field (1.7×10^-2 mm^2) or 150 μm length of venule. Rolling leukocytes were defined as those white blood cells that moved at a velocity less than that of erythrocytes in the same stream. The flux of rolling leukocytes was determined as the number of rolling leukocytes which crossed a fixed point on the venule over a given period of time. Leukocyte rolling velocity was determined from the time required for a leukocyte to roll along a given distance of the venule.

The subject of experiment [2] is IgG immune complex-induced acute lung injury. The experiment can be described thus: IgG immune complex-induced acute lung injury in the rat. In kind it is in vivo, rat (male Long-Evans). Conditions: for effect on IgG immune complex-induced neutrophil accumulation / lung injury: conclusion in words.
A further experiment deals with T1, recombinant E-selectin (Homo sapiens, UniProt P16581).
T1 sequence (P16581 22-556 limits assumed): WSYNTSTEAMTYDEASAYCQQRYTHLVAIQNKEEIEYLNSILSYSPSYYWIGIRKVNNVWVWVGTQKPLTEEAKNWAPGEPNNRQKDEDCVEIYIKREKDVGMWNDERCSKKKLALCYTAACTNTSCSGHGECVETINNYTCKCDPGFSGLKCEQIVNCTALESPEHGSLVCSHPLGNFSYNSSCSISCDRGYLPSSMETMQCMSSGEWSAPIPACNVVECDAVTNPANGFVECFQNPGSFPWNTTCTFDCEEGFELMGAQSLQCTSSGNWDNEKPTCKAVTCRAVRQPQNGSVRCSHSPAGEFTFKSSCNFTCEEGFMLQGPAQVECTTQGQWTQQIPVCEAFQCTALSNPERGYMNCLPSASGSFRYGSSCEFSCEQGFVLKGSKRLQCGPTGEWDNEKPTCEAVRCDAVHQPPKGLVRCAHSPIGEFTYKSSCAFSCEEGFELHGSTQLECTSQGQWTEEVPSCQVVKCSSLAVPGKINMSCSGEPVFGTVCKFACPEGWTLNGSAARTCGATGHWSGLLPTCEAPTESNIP
The experiment can be described thus: HL-60 cell binding to recombinant E-selectin. Format: cell-based. The following applies: for inhibition of binding of HL-60 cells to recombinant E-selectin: FIG. 13. On the procedure:
In this assay recombinant soluble E-selectin is bound to the plastic surface of a 96 well ELISA plate. Dilutions of test compounds are added to the wells followed by HL-60 cells which bear the ligand for E-selectin. The cells are allowed to adhere to the E-selectin coated assay plate and the nonadherent cells are removed by washing the plate with an automated plate washer. Bound cells are quantitated by measuring the cellular enzyme myeloperoxidase. The concentration of oligosaccharide required to achieve 50% inhibition of control adhesion is used to compare analogs for potency.
Microflex III 96 well ELISA plates were coated with 50 μL of recombinant E-selectin (4 μg/mL) in Dulbecco's phosphate buffered saline (DPBS) and incubated at room temperature for 3 hours. The plates were then washed three times with 200 μL DPBS containing bovine serum albumin (10 mg/mL: DPBS-BSA) and incubated at room temperature for 60 minutes with DPBS-BSA.
Oligosaccharides to be tested were prepared in 1.5 mL eppendorf tubes by adding enough DPBS to make each sample a 10 mM solution according to its molecular weight. The pH was adjusted to be within 7.0 and 7.4.
After 30 minutes 2×10^5 HL-60 cells (10^7 /mL) were added and incubated for 15 minutes at room temperature. The unbound cells were removed by washing the plate 3 times with HBSS containing HEPES buffer (20 mM), glucose (0.2%), CaCl2 (1 mM) and BSA (10 mg/mL). After removal of the wash buffer the bound cells remaining were lysed by addition of Nonidet P 40 (0.1%) in 25 mM citrate/phosphate buffer. After 5 minutes 50 μL of o-phenylenediamine dihydrochloride (1 mg/mL) in citrate/phosphate buffer containing 0.001% hydrogen peroxide was added to each well. After 5 to 10 minutes the development of color was halted by the addition of 40 μL of H2 SO4. Color developed was measured in a plate reading spectrophotometer at 492 nm.

Setting [3] is: i.v. at 2.5, 3.0 and 3.5 h (FIG. 18), P<0.05.

For `CC(=O)NC1C(O)OC(CO)C(OC2OC(CO)C(O)C(OC3(C(=O)O)CC(O)C(NC(C)=O)C(C(O)C(O)CO)O3)C2O)C1O` (stereo not shown) [SLN, reference compound], in experiment [1], the “effect on histamine induced leukocyte rolling” value is recorded as “had no effect”, the Erythrocyte velocity amounted to 3.0 ± 0.5 mm/sec, the Leukocyte adherence turned out to be 5.5 ± 1.4 per 100 μm and the Leukocyte emigration was 4.8 ± 2.8 per field. In experiment [1], the Venular diameter is reported as 31 ± 2 μm and the Wall shear rate came to 495 ± 28 s⁻¹. In addition, in experiment [2], the “effect on IgG immune complex-induced neutrophil accumulation / lung injury” value is given as “did not inhibit IgG immune complex induced lung injury”. Moreover, in experiment [2] (versus PBS treated animals), the effect on hemorrhage result is “no decrease in hemorrhage”, the “effect on lung content of MPO” value was “no decrease in lung content of MPO” and the “effect on vascular permeability” value is recorded as “no alteration in vascular permeability value”. At recombinant E-selectin, the “inhibition of binding of HL-60 cells to recombinant E-selectin” value was “not”.
For the molecule `CCO[C@@H]1O[C@H](CO)[C@H](O)[C@H](O[C@@H]2O[C@H](CO)[C@@H](O[C@@H]3O[C@H](CO)[C@H](O)[C@H](O[C@]4(C(=O)O)C[C@H](O)[C@@H](NC(C)=O)[C@H]([C@H](O)[C@H](O)CO)O4)[C@H]3O)[C@H](O[C@@H]3O[C@@H](C)[C@@H](O)[C@@H](O)[C@@H]3O)[C@H]2NC(C)=O)[C@H]1O` [Z, Ethyl(sodium(5-acetamido-3,5-dideoxy-α-D-glycero-D-galacto-2-nonulopyanosylonate))-(2-3)-O-(β-D-galactopyranosyl)-(1-4)-O-((α-L-fucopyranosyl)-(1-3))-O-(2-acetamido-2-deoxy-β-D-glucopyranosyl)-(1-3)-O-β-D-galactopyranoside], the “effect on leukocyte adherence induced by 10^-5 M histamine” value in experiment [1] (10 mg/Kg i.v.) is “significantly attenuated”. Further, in experiment [1], the “effect on histamine induced leukocyte rolling” value is “inhibited leukocyte rolling”, the Erythrocyte velocity amounted to 2.1 ± 0.2 mm/sec, the Leukocyte adherence worked out at 2.3 ± 1.9 per 100 μm and the Leukocyte emigration is on record as 2.0 ± 1.2 per field. In experiment [1], this molecule yielded a Venular diameter of 29 ± 0.2 μm and a Wall shear rate of 355 ± 14 s⁻¹. Further, in experiment [2] (50 μg (FIG. 19)), the “effect on lung MPO content” value is “did not significantly reduce MPO content”. Also, the “effect on lung MPO content” value in experiment [2] (100, 200 and 300 μg (FIG. 19)) was “significant reductions”. Further, in experiment [2] (all doses, 50-500 μg (FIG. 19)), the “effect on vascular permeability” value is on record as “significant reductions in vascular permeability”. Also, in experiment [2], the “effect on IgG immune complex-induced neutrophil accumulation / lung injury” value is listed as “blocked IgG”. In experiment [2] (setting [3]), the “reduction in MPO content” value turned out to be 27% and the reduction in permeability is reported as 20%. In experiment [2] (i.v. at 2.5, 3.0 and 3.5 h (FIG. 18), P=N.S.), this molecule registered a reduction in hemorrhage of 21%. Besides, the effect on hemorrhage result in experiment [2] (two highest doses (FIG. 19)) is reported as “statistically significant reductions in hemorrhage”. In addition, at recombinant E-selectin, the “inhibition of binding of HL-60 cells to recombinant E-selectin” value is recorded as “inhibited in a concentration dependent manner”. In addition, on recombinant E-selectin (read-out: IC50 for inhibition of HL-60 cell binding to recombinant E-selectin), the IC50 is roughly 500 µM.

Source of the values: patent US5753631A, “Intercellular adhesion mediators” (Cytel Corporation, priority 1995, dated 1998).
